Data on one molecule can be found in publication PMC6013238, “Development of novel NEMO-binding domain mimetics for inhibiting IKK/NF-κB activation” (PLoS Biology, 2018).

The data set can be described thus: Hematological measures in acutely treated mice. As to conditions: SR12343 30 mg/kg i.p. 30 min before LPS 10 mg/kg, 2 h; mean ± SD. The format is in vivo, mouse. How it is done: To determine their NF-κB inhibitory effects in vivo, SR12343 and SR12460 were tested in an acute model of LPS-induced systemic endotoxemia. C57BL/6J mice were pretreated with vehicle control, 8K-NBD peptide, or NBD mimetics at 10 mg/kg for 30 min, followed by LPS induction at 10 mg/kg (Fig 6B). Lung and liver were harvested 2–4 h post treatment for qRT-PCR analysis of NF-κB target genes. […] Despite lower plasma and tissue concentrations of SR12343 compared to SR12460, its inhibition of NF-κB/IKK in liver and lung were greater than that of SR12460 (Fig 6C). Similarly, acute treatment with SR12343 also affected the LPS-induced expression of NF-κB target genes at protein level. The extent of phosphorylation of IκBα and the levels of COX-2 were reduced in lung and liver tissues treated with SR12343 (Fig 6D and 6E). […] However, no significant differences in lung histopathology were observed. Finally, there was a slight reduction in the number of white blood cells and neutrophils in the SR12343-treated group (Table 2).
Nine mice (male; C57BL/6, 9–13 wk) were randomly divided into 3 groups with 3 mice in each group. Mice were injected i.p. with vehicle (DMSO:Tween80:H2O, 10:10:80) or small-molecule SR12343 (30 mg/kg) for 30 min and then injected i.p. with saline (1 ml/kg) or LPS (10 mg/kg in saline). After 2 h, mice were euthanized by CO2 asphyxiation prior to blood sampling via cardiac puncture. The blood from each mouse was put into 2 collection tubes with coagulant or anticoagulant heparin (approximately 0.6 mL each). The samples in the tubes coated with the anticoagulant heparin were hand-mixed several times and placed on wet ice for hematological analysis using an automatic hematology analyzer (Hemavet 950FS; Drew Scientific, Miami Lakes, FL). Samples in tubes containing no anticoagulant were allowed to clot before centrifugation and submission for serum biochemical analysis using the VetScan VS2 Analyzer with the Comprehensive Diagnostic Profile reagent rotor (Abaxis, Union City, CA). The ALT, AST, and […] activities in the serum were quantitated by a colorimetric, enzymatic method using the Clinical Chemistry Analyzer Cobas c311 (Roche Diagnostics, Risch-Rotkreuz, Switzerland) as per the manufacturer’s instructions.

With `O=C(CNc1ccc(Cl)cn1)NCCc1cccc(Br)c1` [SR12343], the Hematocrit was 53.0 ± 1.5%, the Hemoglobin is 15.3 ± 0.4 g/dL, the Mean corpuscular hemoglobin is listed as 14.8 ± 0.2 pg and the “Mean corpuscular hemoglobin concentration” value was 28.9 ± 0.2 g/dL. This molecule also came in with a Mean corpuscular volume of 51.2 ± 1.0 fL, a Mean platelet volume of 5.7 ± 0.8 fL, a Platelets of 170.7 ± 64.0 K/μL and a Red blood cells of 10.4 ± 0.3 M/μL. The “Red cell distribution width” value worked out at 15.0 ± 0.2% and the White blood cells is 7.4 ± 3.3 K/μL.
